{"source": "patent US10835516B2", "about": "“Protective, anti-inflammatory receptor and its use in preservation of mitochondrial function, wound healing and repair” (The Johns Hopkins University, priority 2011, dated 2020)", "key": {"mtAT2R [1]": {"molecular_target": "T1, mtAT2R (Rattus norvegicus, UniProt P35351)", "T1 construct": "we examined effects on respiration in rat heart mitochondria; from tissue; host or cells: isolated rat heart or liver mitochondria", "T1 sequence (P35351 1-363)": "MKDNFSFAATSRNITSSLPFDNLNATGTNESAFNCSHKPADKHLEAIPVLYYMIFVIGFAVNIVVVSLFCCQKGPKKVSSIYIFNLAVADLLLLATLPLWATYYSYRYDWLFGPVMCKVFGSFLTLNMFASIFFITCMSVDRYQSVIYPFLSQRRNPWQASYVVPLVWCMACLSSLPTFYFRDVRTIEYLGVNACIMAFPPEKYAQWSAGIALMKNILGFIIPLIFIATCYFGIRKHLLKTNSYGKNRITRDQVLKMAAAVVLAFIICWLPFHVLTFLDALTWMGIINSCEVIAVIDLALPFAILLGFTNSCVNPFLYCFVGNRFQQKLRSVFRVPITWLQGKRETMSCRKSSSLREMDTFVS", "test": "Mitochondrial respiration, isolated rat heart mitochondria (Seahorse XF96)", "type": "biochemical", "protocol": "Mitochondrial Respiration. For monitoring respiration, isolated mitochondria from rat heart or liver (10 μg of protein per well) were aliquoted into 96 wells of a polyethyleneimine-coated XF96 cell culture microplate (Seahorse Bioscience). The plate was centrifuged at 3,000×g for 10 minutes at 4° C. in an A-4-62 rotor, which control experiments determined caused an attachment of isolated mitochondria that was sufficiently robust to withstand the mixing protocols of the machine. Mitochondria were placed in 300 μL per well of mitochondrial buffer [20 mM Hepes, 137 mM KCl, 2.5 mM MgCl2, 2 mM K2HPO4, 0.5 mM EGTA, and 0.2% (wt/vol) BSA (pH 7.3) at 37° C.]J. Plates were used immediately. The cell culture microplate was incubated and loaded into the Seahorse XF96 extracellular flux analyzer following the manufacturer's instructions. All experiments were performed at 37° C.\nOxygen consumption rate data points refer to the mean rates during the measurement cycles, which consisted of a mixing time of 30 s and a wait time of 2 minutes followed by a data acquisition period of 10 minutes (50 data points). […] The oxygen consumption rates were determined by using a compartment model-based deconvolution algorithm, which compensated for oxygen diffusion phenomena occurring around the entrapped volume and for the response time of the probe. […]"}, "mtAT2R [2]": {"molecular_target": "T2, mtAT2R (Mus musculus, UniProt P35374)", "T2 construct": "from tissue; host or cells: isolated kidney mitochondria", "T2 sequence (P35374 1-363)": "T1 sequence (P35351 1-363) with L18R, A40S, V88L, S352G", "test": "NO production in isolated kidney mitochondria (NO fluorescent probe)", "type": "biochemical", "conditions": "PD-123319 1 μM; P<0.01", "protocol": "Measurement of Nitric Oxide (NO) Production in Isolated Mitochondria. Kidney mitochondria were isolated by homogenization and differential centrifugation in a medium containing […] of 1 M sucrose, 12 mL of 1 M mannitol, 2.5 mL of 1 M KCL, 1 M Tris-HCL, 0.5 mL of 1 M EDTA, 1.5 mL of 0.1 M EGTA, and 0.1% BSA (pH 7.4). Mitochondria were suspended in incubation solution. Total mitochondrial protein was determined by a Lowry Protein Assay Kit (Sigma-Aldrich). […] The fluorescent products were measured by using a reader equipped with Cyanine 5 (650/670 nm).\nAT2Rs Modulate Mitochondrial NO Production. To determine whether mtAT2R activation might modulate mitochondrial NO production in a manner analogous to the actions of non-mtAT2Rs on other NO isoforms, the direct effects of AT2R agonists and antagonists were determined on isolated kidney mitochondria. […] Fluorescence signal was measured by using a multimode microplate reader equipped with Cyanine 5 (650/670 nm). Treatment of mitochondria with CGP421140 caused a concentration-dependent increase in mitochondrial NO production (FIG. 6A); specifically, 10 nM was sufficient to stimulate NO production [from 0.52±0.0009 fluorescence arbitrary units (AU) at baseline control to 0.6+0.01 AU, P<0.001]. […]"}, "wounds": {"tested_on": "wounds", "test": "Wound healing in db/db mice, losartan started at different phases", "type": "in vivo, BKS.Cg-m+/+Lepr^db/J(db/db) mice", "conditions": "8 week old db/db mice; preliminary data", "text": "In order to provide additional rationale for using losartan ointment at day 7 of wound treatment, preliminary data was developed on the effects of losartan on all phases of wound healing in 8 week old BKS.Cg-m+/+Lepr^db/J(db/db) mice (FIGS. 11, 12)."}, "8-mm excisional wounds": {"tested_on": "8-mm excisional wounds", "test": "Full thickness excisional wound healing, daily topical cream", "type": "in vivo, mice", "conditions": "after three days of treatment, FIG. 8", "protocol": "For wound-healing experiments, animal procedures were approved by the Johns Hopkins University Animal Care and Use Committee. During the experiments the animals were-housed one per cage, maintained under controlled environmental conditions (12 hours light to dark cycle, temperature approximately 23° C.), and provided with standard laboratory food and water ad libitum. 16 male mice with average weight of 30 g were divided into two groups. Mice were anesthetized with ketamine hydrochloride (100 mg/kg) and xylazine (10 mg/kg), and the dorsum was shaved and then treated with a depilatory (Nair cream, Church & Dwight Co., Princeton, N.J.). Two symmetrical full thickness excisional wounds created on their back using an 8-mm punch biopsy instrument. No dressing was used after burn. The animals were resuscitated according to the Parkland formula (4 mL/kg/percent body area) by intraperitoneal injection of saline within 1 hour after wound. Animals were divided into two groups; A and B. One group received daily application of an angiotensin receptor blocker cream to both wounds per animal and the other received vehicle. Researchers were blinded to the identity of the cream applied. We used digital photography and computerized planimetry to assess the rate of wound healing in either group."}, "[3]": {"test": "Blood pressure and general health of mice on chronic losartan", "experimental": "Human and Animal Groups. Mitochondria were studied in adult human monocytes (20-30 y old), adult human skeletal muscle tissue, adult rats (24 wk old), adult (20 wk old) and aged (70 wk old) mice, and a human cell line. Adult mice at 50 wk of age were treated with the AT1R blocker losartan at doses of 40-60 mg/kg per day for 20 wk. All experiments were approved by the Johns Hopkins Animal Care and use Committee and the Johns Hopkins Institutional Review Board. Weight, blood urea nitrogen, creatinine, and albumin were measured in adult (20 wk) and aged (70 wk) mice and in aged mice on losartan treatment. […] We visually inspected each animal carcass after the dissection for any abnormalities."}, "mtAT2R [4]": {"tested_on": "mtAT2R", "test": "Immunoelectron microscopy of mtAT2R in kidney tubular cells of aged mice on chronic losartan", "type": "in vivo, C57BL/6 mice", "conditions": "70-wk-old mice, losartan 40-60 mg/kg per day for 20 wk; aged untreated 10.2+2.2, young 25.5+6.2", "protocol": "(§1) Immunolocalization of AT1R, AT2R, and Ang. Immunogold electron microscopy was performed as described (Am. J. Physiol. Endocrinot. Metab., 286:E1011-E1022 (2004)). In brief, mouse tissues were fixed in 4% formaldehyde in 0.1 M sodium cacodylate supplemented with 3% sucrose (wt/vol) and 3 mM CaCl2 and cryoprotected in 2.3 M sucrose overnight in polyvinylpyrrolidone (Sigma). Ultrathin sections were cut on a Leica Ultracut UCT microtome, and sections were placed on Formvar-coated nickel 200-mesh hexagonal grids. The sections were incubated in primary antibody against rabbit anti-AT2R, goat anti-Ang, or goat anti-AT1R antibody overnight at 4° C. at a concentration of 10 μg/mL. […] Primary antibodies were detected with either 6-nm colloidal gold donkey anti-goat or 12-nm colloidal goat anti-rabbit (Jackson ImmunoResearch) diluted 1:20 in PBS for 1 hour. Final contrasting of the sections was done by incubating them in 2% methyl cellulose (Sigma) and 0.3% uranyl acetate (Ted Pella) for 10 min at 4° C. All sections were viewed with a Philips CM 120 TEM transmission electron microscope at an accelerating voltage of 80 kV. Images were taken with a Gatan Orius SC 1000 digital camera. Photographs for representative sections were taken."}, "mtAT1R": {"tested_on": "mtAT1R", "test": "Immunoelectron microscopy of mtAT1R in kidney tubular cells of aged mice on chronic losartan", "type": "in vivo, C57BL/6 mice", "conditions": "70-wk-old mice, losartan 40-60 mg/kg per day for 20 wk; aged untreated 12.7+5.8, young 2.0+2.2", "protocol": "as §1"}}, "note": "Numbering of substitutions follows the chain as printed.", "data": [{"molecule": "Cc1cc(Cn2cnc3c2C[C@@H](C(=O)O)N(C(=O)C(c2ccccc2)c2ccccc2)C3)ccc1N(C)C", "note": "[PD-123319]", "values": [{"measurement": "CGP421140-inhibited state 3 respiration restored by PD-123319", "setting": "mtAT2R [1]; 100 nM CGP421140 + PD-123319 1 μM, P<0.01", "result": "66.83±2.1", "unit": "pmol/min per μg"}, {"measurement": "CGP421140-stimulated NO production after pretreatment with PD-123319", "setting": "mtAT2R [2]", "result": "0.55±0.006", "unit": "AU"}]}, {"molecule": "COC(=O)[C@@H](N)CCCNC(=N)N[N+](=O)[O-]", "note": "[L-NAME, L-N^G-nitroarginine methyl ester]", "values": [{"measurement": "CGP421140-inhibited state 3 respiration reversed by L-NAME", "setting": "mtAT2R [1]; 100 nM CGP421140 + L-NAME 1 μM, P<0.05", "result": "67.4±4.3", "unit": "pmol/min per μg"}]}, {"molecule": "CCCCc1nc(Cl)c(CO)n1Cc1ccc(-c2ccccc2-c2nn[nH]n2)cc1", "note": "[losartan]", "values": [{"measurement": "healing and elasticity, treatment starting at day 7 compared to day 1", "setting": "wounds", "result": "accelerated healing and improved elasticity"}, {"measurement": "wound granulation versus vehicle", "setting": "8-mm excisional wounds", "result": "more granulation"}, {"measurement": "evidence of malignancy on carcass inspection", "setting": "[3]; 10 animals per group", "result": "did not observe any evidence of malignancy"}, {"measurement": "weight, blood urea nitrogen, creatinine, and albumin", "setting": "[3]; adult, aged and aged mice on losartan, data not shown", "result": "no significant difference"}, {"measurement": "decrease in blood pressure", "setting": "[3]; losartan 40-60 mg/kg per day for 20 wk", "result": "10-15%"}, {"measurement": "mtAT2R expression", "setting": "mtAT2R [4]", "result": "39.0+2.6 gold-labeled AT2R per mitochondrion"}, {"measurement": "mtAT1R expression", "setting": "mtAT1R", "result": "11.0+2.1 gold-labeled AT1R per mitochondrion"}]}]}
